# Reference: paper PMC7979765, “trans-Translation inhibitors bind to a novel site on the ribosome and clear Neisseria gonorrhoeae in vivo” (Nature Communications, 2021)
# Read-outs that look alike come from different tables or passages of the source.
# System: Neisseria gonorrhoeae
# Assay: MIC, microbroth dilution, G77L medium
# Assay type: cell-based
structure (smiles),measurement,setting,value
O=C(Nc1nnc(-c2ccc(F)cc2)o1)N1CCc2ccccc2C1 [MBX-4132],MIC,"Neisseria gonorrhoeae ATCC 49226, source data, individual replicates",0.08459 µg/mL
same,MIC,"Neisseria gonorrhoeae, ATCC49226, Neisseria gonorrhoeae ATCC 49226, source data, individual replicates",0.169 µg/mL
same,MIC,"Neisseria gonorrhoeae, ATCC49226, read-out: MIC GEOMEAN, strain ATCC 49226, geomean of replicates",0.134 µg/mL
same,MIC,"Neisseria gonorrhoeae, ATCC49226, strain ATCC 49226, replicates 1-3",0.169 µg/mL
same,MIC,"Neisseria gonorrhoeae, ATCC49226, strain ATCC 49226, type strain",0.13 µg/mL
same,MIC,"Neisseria gonorrhoeae, ATCC49226, strain MMX ATCC 49226, broth dilution by Micromyx",0.27 µg/mL
same,MIC,"Neisseria gonorrhoeae, ATCC700719, read-out: MIC GEOMEAN, strain ATCC 700719, geomean of replicates",0.213 µg/mL
same,MIC,"Neisseria gonorrhoeae, ATCC700719, strain ATCC 700719, SPT",0.21 µg/mL
same,MIC,"Neisseria gonorrhoeae, ATCC700719, strain ATCC 700719, replicates 1-3",0.169 µg/mL
same,MIC,"Neisseria gonorrhoeae, ATCC700825, read-out: MIC GEOMEAN, strain ATCC 700825, geomean of replicates",0.042 µg/mL
same,MIC,"Neisseria gonorrhoeae, ATCC700825, strain ATCC 700825, STR",0.04 µg/mL
same,MIC,"Neisseria gonorrhoeae, ATCC700825, strain ATCC 700825, replicates 1-3",0.042 µg/mL
same,MIC,"Neisseria gonorrhoeae, BAA1846, read-out: MIC GEOMEAN, strain BAA-1846, geomean of replicates",0.042 µg/mL
same,MIC,"Neisseria gonorrhoeae, BAA1846, strain BAA-1846, TET",0.04 µg/mL
same,MIC,"Neisseria gonorrhoeae, BAA1846, strain BAA-1846, replicates 1-3",0.042 µg/mL
same,MIC90,"Neisseria gonorrhoeae, read-out: MIC90 (n)",0.53 µg/mL
same,MIC,"Neisseria gonorrhoeae, read-out: MIC GEOMEAN, strain CDC-0165, geomean of replicates",0.677 µg/mL
same,MIC,"Neisseria gonorrhoeae, read-out: MIC GEOMEAN, strain CDC-0166, geomean of replicates",0.169 µg/mL
same,MIC,"Neisseria gonorrhoeae, read-out: MIC GEOMEAN, strain CDC-0167, geomean of replicates",0.134 µg/mL
same,MIC,"Neisseria gonorrhoeae, read-out: MIC GEOMEAN, strain CDC-0169, geomean of replicates",0.169 µg/mL
same,MIC,"Neisseria gonorrhoeae, read-out: MIC GEOMEAN, strain CDC-0170, geomean of replicates",0.169 µg/mL
same,MIC,"Neisseria gonorrhoeae, read-out: MIC GEOMEAN, strain CDC-0171, geomean of replicates",0.169 µg/mL
same,MIC,"Neisseria gonorrhoeae, read-out: MIC GEOMEAN, strain CDC-0172, geomean of replicates",0.169 µg/mL
same,MIC,"Neisseria gonorrhoeae, read-out: MIC GEOMEAN, strain CDC-0173, geomean of replicates",0.169 µg/mL
same,MIC,"Neisseria gonorrhoeae, read-out: MIC GEOMEAN, strain CDC-0174, geomean of replicates",0.169 µg/mL
same,MIC,"Neisseria gonorrhoeae, read-out: MIC GEOMEAN, strain CDC-0175, geomean of replicates",0.085 µg/mL
same,MIC,"Neisseria gonorrhoeae, read-out: MIC GEOMEAN, strain CDC-0176, geomean of replicates",0.338 µg/mL
same,MIC,"Neisseria gonorrhoeae, read-out: MIC GEOMEAN, strain CDC-0177, geomean of replicates",0.169 µg/mL
same,MIC,"Neisseria gonorrhoeae, read-out: MIC GEOMEAN, strain CDC-0178, geomean of replicates",0.338 µg/mL
same,MIC,"Neisseria gonorrhoeae, read-out: MIC GEOMEAN, strain CDC-0179, geomean of replicates",0.085 µg/mL
same,MIC,"Neisseria gonorrhoeae, read-out: MIC GEOMEAN, strain CDC-0180, geomean of replicates",0.169 µg/mL
same,MIC,"Neisseria gonorrhoeae, read-out: MIC GEOMEAN, strain CDC-0181, geomean of replicates",0.169 µg/mL
same,MIC,"Neisseria gonorrhoeae, read-out: MIC GEOMEAN, strain CDC-0182, geomean of replicates",0.169 µg/mL
same,MIC,"Neisseria gonorrhoeae, read-out: MIC GEOMEAN, strain CDC-0183, geomean of replicates",0.338 µg/mL
same,MIC,"Neisseria gonorrhoeae, read-out: MIC GEOMEAN, strain CDC-0184, geomean of replicates",0.169 µg/mL
same,MIC,"Neisseria gonorrhoeae, read-out: MIC GEOMEAN, strain CDC-0185, geomean of replicates",0.269 µg/mL
same,MIC,"Neisseria gonorrhoeae, read-out: MIC GEOMEAN, strain CDC-0186, geomean of replicates",0.169 µg/mL
same,MIC,"Neisseria gonorrhoeae, read-out: MIC GEOMEAN, strain CDC-0187, geomean of replicates",0.338 µg/mL
same,MIC,"Neisseria gonorrhoeae, read-out: MIC GEOMEAN, strain CDC-0188, geomean of replicates",0.169 µg/mL
same,MIC,"Neisseria gonorrhoeae, read-out: MIC GEOMEAN, strain CDC-0189, geomean of replicates",0.134 µg/mL
same,MIC,"Neisseria gonorrhoeae, read-out: MIC GEOMEAN, strain CDC-0190, geomean of replicates",0.169 µg/mL
same,MIC,"Neisseria gonorrhoeae, read-out: MIC GEOMEAN, strain HO41, geomean of replicates",0.169 µg/mL
same,MIC,"Neisseria gonorrhoeae, read-out: MIC GEOMEAN, strain WHO F, geomean of replicates",0.066 µg/mL
same,MIC,"Neisseria gonorrhoeae, read-out: MIC GEOMEAN, strain WHO G, geomean of replicates",0.132 µg/mL
same,MIC,"Neisseria gonorrhoeae, read-out: MIC GEOMEAN, strain WHO K, geomean of replicates",0.264 µg/mL
same,MIC,"Neisseria gonorrhoeae, read-out: MIC GEOMEAN, strain WHO L, geomean of replicates",0.264 µg/mL
same,MIC,"Neisseria gonorrhoeae, read-out: MIC GEOMEAN, strain WHO M, geomean of replicates",0.132 µg/mL
same,MIC,"Neisseria gonorrhoeae, read-out: MIC GEOMEAN, strain WHO N, geomean of replicates",0.264 µg/mL
same,MIC,"Neisseria gonorrhoeae, read-out: MIC GEOMEAN, strain WHO O, geomean of replicates",0.132 µg/mL
same,MIC,"Neisseria gonorrhoeae, read-out: MIC GEOMEAN, strain WHO P, geomean of replicates",0.333 µg/mL
same,MIC,"Neisseria gonorrhoeae, read-out: MIC GEOMEAN, strain WHO U, geomean of replicates",0.132 µg/mL
same,MIC,"Neisseria gonorrhoeae, read-out: MIC GEOMEAN, strain WHO V, geomean of replicates",0.264 µg/mL
same,MIC,"Neisseria gonorrhoeae, read-out: MIC GEOMEAN, strain WHO W, geomean of replicates",0.132 µg/mL
same,MIC,"Neisseria gonorrhoeae, read-out: MIC GEOMEAN, strain WHO X, geomean of replicates",0.21 µg/mL
same,MIC,"Neisseria gonorrhoeae, read-out: MIC GEOMEAN, strain WHO Y, geomean of replicates",0.21 µg/mL
same,MIC,"Neisseria gonorrhoeae, read-out: MIC GEOMEAN, strain WHO Z, geomean of replicates",0.264 µg/mL
same,MIC,"Neisseria gonorrhoeae, read-out: N. gonorrhoeae H041 MIC, strain H041, Fig. 1B",0.18 µg/mL
same,MIC90,"Neisseria gonorrhoeae, read-out: N. gonorrhoeae MIC90",0.34 µg/mL
same,MIC,"Neisseria gonorrhoeae, strain CDC-0165, CIP, PEN, TET",0.68 µg/mL
